Data taken from patent publication US9464135B2, “Epithelial membrane protein-2 (EMP2) and proliferative vitroretinopathy (PVR)” (THE REGENTS OF THE UNIVERSITY OF CALIFORNIA, priority 2009, dated 2016).

Legend:
Format in all cases: cell-based, human
ARPE-19 cells [1] = assay: Collagen gel contraction assay, ARPE-19 cells; settings: 1 hour pretreatment, normalized to vehicle control, read-out: concentration required to achieve 50% inhibition of the gel contraction
Procedure: EMP2 diabody was recombinantly constructed using a phage library to select for reactivity against a human EMP2 peptide. […] Toxicity, adhesion, and migration were assessed respectively through flow cytometry using Annexin V, binding to collagen type 1, and a wound healing assay. Collagen gel contraction was assessed using an in vitro assay.
(§1) Collagen gel contraction assays were performed as previously reported (Morales S A et al., Exp Eye Res, 85(6):790-798 (2007)). Briefly, collagen gels were prepared by combining collagen type I (BD Biosciences) 10×DMEM, and DMEM/F12. The final concentration of the collagen type I mixture was 2.5 mg/mL. The collagen solution (500 μL) was added to each well of a 24-well plate and incubated at 37° C. in 5% CO2 for 1 hour. Cultured ARPE-19 cell with modified EMP2 levels were harvested and resuspended in serum-free DMEM/F12 at a final concentration of 5×10^5/mL. ARPE-19 cells with modified EMP2 levels were seeded onto the collagen gel at a concentration of 2.5×10^5 cells per well and the percentage of contraction was measured at 24 hours. The area of the each gel was obtained by taking a picture of the gel using image capture (Gel Doc 2000; Bio-Rad, Hercules, Calif.) and quantified with NIH Image J (developed by Wayne Rasband, National Institutes of Health, Bethesda, Md.; available at http://rsb.info.nih.gov/ij/index.html). […]

ARPE-19/EMP2 siRNA cells = assay: Collagen gel contraction assay, ARPE-19/EMP2 siRNA cells; settings: 1 hour pretreatment, normalized to vehicle control, read-out: concentration required to achieve 50% inhibition of the gel contraction
Procedure: as §1
(§2) Collagen gels were prepared with collagen type I (BD Biosciences) in DMEM/F12 at a final concentration of 2.5 mg/mL. […] ARPE-19, ARPE-19/EMP2, and ARPE-19/EMP2 siRNA cells were seeded onto the collagen gels at a concentration of 2.5×10^5 cells per well and the percentage of contraction was measured at specific time intervals. […]

ARPE-19/EMP2 cells = assay: Collagen gel contraction assay, ARPE-19/EMP2 cells; settings: overexpressing ARPE-19/EMP2 cells; 1 hour pretreatment; normalized to vehicle control; read-out: concentration required to achieve 50% inhibition of the gel contraction
Procedure: as §1, §2

ARPE-19 cells [2] = assay: Migration assay (scratch wound closure); settings: 50 ng/mL PDGF, 24 hours
Procedure: ARPE-19 and ARPE-19/EMP2 cells were seeded onto a 24-well plate and incubated for 3 days until cells reached confluence. The cells were washed with PBS, serum-free medium was added, and the cells were incubated overnight. A 10 μL pipette tip was used to make a scratch in the monolayer and the medium was removed and replaced with serum-free medium or serum-free medium that contained 50 ng/mL PDGF. Pictures of the wound were taken at various time points, and the percentage closure of the scratch was quantified with NIH Image J software. The area of the scratch was measured immediately after the wound was created. Over time, cells migrated into the cleared area; however, a gap was still visible after 24 hours. The gap size was measured and divided by the original scratch size, and this value was expressed as percentage closure.

[3] = system: ARPE-19 and ARPE-19/EMP2 cells; assay: Collagen production (Sircol Collagen Assay); settings: 10 ng/mL TGF-β, 72 hours, serum-free medium; compared with untreated condition
Procedure: ARPE-19 and ARPE-19/EMP2 cells were seeded onto a six-well plate at a concentration of 7×10^5 cells/mL in serum-free medium in the presence or absence of 10 ng/mL […]. The medium was collected after 72 hours. Secreted collagen was measured (Sircol Collagen Assay; Accurate Chemical & Scientific, Westbury, N.Y.). The collagen assay is a colorimetric procedure. The reaction product was quantified with the microplate reader at a wavelength of 540 nm. Each experiment included at least six replicates, and at least three independent experiments were performed. A Student's t-test (unpaired, one-tail) was used. P<0.05 was judged to be statistically significant.

Q: Which IC50 (ARPE-19 cells [1]) does the source give for CC(C)(C)n1nc(-c2ccc(Cl)cc2)c2c(N)ncnc21 [PP2] here?
A: The IC50 was 2500 nM.

Q: What about the IC50 (ARPE-19/EMP2 siRNA cells) of the same compound?
A: The IC50 was less than 1000 nM.

Q: And the IC50 (ARPE-19/EMP2 cells)?
A: The IC50 was 5000 nM.

Q: How did the wound closure (ARPE-19 cells [2]) turn out when PDGF was run?
A: The wound closure was “stimulated wound closure”.

Q: TGF-β was tested. Which collagen production [3] did it give?
A: The collagen production was “increased collagen production”.
